Results taken from patent US10301317B2, “Inhibitors of ERK and methods of use” (Kura Oncology, Inc., priority 2013, dated 2019).

What was measured:
[1] = tested on: phospho-p90 RSK (RSK1 Thr359/Ser363) in A375 (Braf V600E) cells; test: Phospho-p90 RSK ELISA using A375 (Braf V600E) cells; type: cell-based; details: Homo sapiens, A-375, 2 hours compound treatment, read-out: Cellular Phospho-p90RSK IC50
A375 cells = test: Tumor cell line proliferation assay (CellTiter Glo), A375; type: cell-based; details: Homo sapiens, A-375, 96 h, read-out: A375 (V599E) Cell Proliferation IC50

IC50 [1] [nM] | IC50 (A375 cells) [nM] | SMILES
≤ 250 | ≤ 250 | COc1cc(-c2n[nH]c3cc4c(cc23)CN([C@@H]2CCCN(Cc3ccc(F)cc3F)C2)C(=O)N4)ccn1 [Example 271]
≤ 250 | ≤ 250 | Cc1cc(-c2n[nH]c3cc4c(cc23)CN([C@@H]2CCCN(Cc3ccc(C)s3)C2)C(=O)N4)ccn1 [Example 245]
≤ 250 | ≤ 250 | Cc1cc(-c2n[nH]c3cc4c(cc23)CN(Cc2cccc(C(F)(F)F)c2)C(=O)N4)ccn1 [Example 240]
≤ 250 | ≤ 250 | Cc1ccc(-c2n[nH]c3cc4c(cc23)CN([C@@H]2CCCN(Cc3ccccc3)C2)C(=O)N4)cn1 [Example 275]
≤ 250 | ≤ 250 | Cc1ncc(-c2n[nH]c3cc4c(cc23)CN([C@@H]2CCCN(Cc3ccc(F)cc3F)C2)C(=O)N4)cn1 [Example 293]
≤ 250 | ≤ 250 | COc1ccc(-c2n[nH]c3cc4c(cc23)CN([C@@H]2CCCN(Cc3ccccc3)C2)C(=O)N4)cn1 [Example 272]
≤ 250 | ≤ 250 | Cc1cc(-c2n[nH]c3cc4c(cc23)CN([C@@H]2CCCN(Cc3cccs3)C2)C(=O)N4)ccn1 [Example 254]
≤ 250 | ≤ 250 | Cn1cc(-c2n[nH]c3cc4c(cc23)CN([C@@H]2CCCN(Cc3ccccc3)C2)C(=O)N4)cn1 [Example 285]
≤ 250 | 250 to 1000 | Cc1cc(-c2n[nH]c3cc4c(cc23)CN(Cc2ccc(F)c(Cl)c2)C(=O)N4)cc(C)n1 [Example 226]
≤ 250 | 250 to 1000 | O=C1Nc2cc3[nH]nc(-c4ccc(N5CCOCC5)nc4)c3cc2CN1Cc1cccc(Cl)c1 [Example 231]
≤ 250 | 250 to 1000 | Cc1cc(-c2n[nH]c3cc4c(cc23)CN(CC2CCOCC2)C(=O)N4)ccn1 [Example 211]
≤ 250 | ≤ 250 | Cc1cc(-c2n[nH]c3cc4c(cc23)CN([C@@H]2CCCN(Cc3csc(C)c3)C2)C(=O)N4)ccn1 [Example 251]
≤ 250 | 250 to 1000 | Cc1cc(-c2n[nH]c3cc4c(cc23)CN(Cc2ccccc2)C(=O)N4)cc(C)n1 [Example 229]
≤ 250 | ≤ 250 | Cc1cc(-c2n[nH]c3cc4c(cc23)CN([C@@H]2CCCN(Cc3ccsc3)C2)C(=O)N4)ccn1 [Example 252]
≤ 250 | ≤ 250 | Cc1cc(-c2n[nH]c3cc4c(cc23)CN([C@@H]2CCCN(Cc3cccc(Cl)c3)C2)C(=O)N4)ccn1 [Example 156]
≤ 250 | 250 to 1000 | COc1ncc(-c2n[nH]c3cc4c(cc23)CN(C2CN(Cc3ccccc3)CC(F)(F)C2)C(=O)N4)cn1 (stereo not shown) [Example 320]
250 to 1000 | ≤ 250 | Cc1cc(-c2n[nH]c3cc4c(cc23)CN(CCNCc2ccccc2)C(=O)N4)ccn1 [Example 149]
≤ 250 | ≤ 250 | Cc1cc(-c2n[nH]c3cc4c(cc23)CN([C@@H]2CCCN(C(C)c3ccccc3)C2)C(=O)N4)ccn1 (stereo partly shown) [Example 154]
≤ 250 | ≤ 250 | Cc1cc(-c2n[nH]c3cc4c(cc23)CN([C@@H]2CCCN(Cc3sccc3F)C2)C(=O)N4)ccn1 [Example 291]
≤ 250 | ≤ 250 | Cc1cc(-c2n[nH]c3cc4c(cc23)CN(CC2CCCCC2)C(=O)N4)ccn1 [Example 213]
≤ 250 | ≤ 250 | COc1cccc(F)c1CN1CC[C@@H](N2Cc3cc4c(-c5ccnc(C)c5)n[nH]c4cc3NC2=O)C1 [Example 162]
≤ 250 | ≤ 250 | CC(c1ccccc1)c1cc2cc3c(-c4ccc(N5CCOCC5)nc4)n[nH]c3cc2[nH]c1=O (stereo not shown) [Example 324]
≤ 250 | 250 to 1000 | COc1ccc(-c2n[nH]c3cc4c(cc23)CN(Cc2cc(F)cc(F)c2)C(=O)N4)cn1 [Example 92]
≤ 250 | 250 to 1000 | Cc1cc(-c2n[nH]c3cc4c(cc23)CN(Cc2cccs2)C(=O)N4)cc(C)n1 [Example 227]
≤ 250 | ≤ 250 | Cc1cc(-c2n[nH]c3cc4c(cc23)CN([C@@H]2CN(C)C[C@H]2c2ccccc2)C(=O)N4)ccn1 (racemic) [Example 241]
≤ 250 | ≤ 250 | Cc1ccc(-c2n[nH]c3cc4c(cc23)CN([C@@H]2CCCN(Cc3ccc(F)cc3F)C2)C(=O)N4)cn1 [Example 284]
≤ 250 | ≤ 250 | Cn1cc(-c2n[nH]c3cc4c(cc23)CN([C@@H]2CCCN(Cc3ccc(F)cc3F)C2)C(=O)N4)cn1 [Example 281]
≤ 250 |  | O=C1Nc2cc3[nH]nc(-c4ccnnc4)c3cc2CN1[C@@H]1CCCN(Cc2c(F)cccc2F)C1 [Example 122]
250 to 1000 |  | O=C1Nc2cc3[nH]nc(-c4ccnnc4)c3cc2CN1CCc1ccc(F)cc1 [Example 110]
≤ 250 |  | O=C1Nc2cc3[nH]nc(-c4ccnnc4)c3cc2CN1[C@@H]1CCCN(Cc2ccccc2F)C1 [Example 121]

Further lines, the molecule ahead of its results:

SMILES | IC50 [1] [nM] | IC50 (A375 cells) [nM]
CC(c1ccccc1)c1cc2cc3c(-c4ccnc(N5CCN(C)CC5)c4)n[nH]c3cc2[nH]c1=O (stereo not shown) [Example 318] | ≤ 250 | ≤ 250
CC(c1ccccc1)c1cc2cc3c(-c4cccnc4)n[nH]c3cc2[nH]c1=O (stereo not shown) [Example 330] | ≤ 250 | 250 to 1000
Cc1cc(-c2n[nH]c3cc4c(cc23)CN([C@@H]2CCN(CC(F)(F)F)C2)C(=O)N4)cc(C)n1 [Example 237] | ≤ 250 | ≤ 250
Cc1cc(-c2n[nH]c3cc4[nH]c(=O)c(C5CCCN(Cc6ccccc6)C5)cc4cc23)ccn1 (stereo not shown) [Example 332] | ≤ 250 | ≤ 250
C=C(c1ccccc1)c1cc2cc3c(-c4ccnc(C)c4)n[nH]c3cc2[nH]c1=O [Example 269] | ≤ 250 | ≤ 250
Cc1cc(-c2n[nH]c3cc4c(cc23)CN([C@@H]2CN(CC(F)(F)F)C[C@H]2c2ccccc2)C(=O)N4)cc(C)n1 [Example 242] | ≤ 250 | 250 to 1000
CCN1C[C@@H](N2Cc3cc4c(-c5ccnc(C)c5)n[nH]c4cc3NC2=O)[C@H](c2ccccc2)C1 (racemic) [Example 278] | ≤ 250 | ≤ 250
CC(c1ccccc1)c1cc2cc3c(-c4ccnnc4)n[nH]c3cc2[nH]c1=O (stereo not shown) [Example 323] | ≤ 250 | 250 to 1000
CC(c1ccccc1)c1cc2cc3c(-c4ccncc4)n[nH]c3cc2[nH]c1=O (stereo not shown) [Example 326] | ≤ 250 | ≤ 250
CC(c1ccccc1)c1cc2cc3c(-c4cnn(C)c4)n[nH]c3cc2[nH]c1=O (stereo not shown) [Example 333] | ≤ 250 | ≤ 250
Cc1cc(-c2n[nH]c3cc4c(cc23)CN(C2CCC(F)(F)CC2)C(=O)N4)ccn1 [Example 224] | ≤ 250 | 250 to 1000
Cc1cc(-c2n[nH]c3cc4[nH]c(=O)c(C(CO)c5ccccc5)cc4cc23)ccn1 (stereo not shown) [Example 328] | ≤ 250 | 250 to 1000
C[C@H](c1ccccc1)c1cc2cc3c(NC4CCOCC4)n[nH]c3cc2[nH]c1=O [Example 357] | ≤ 250 | ≤ 250
Cc1cc(-c2n[nH]c3cc4c(cc23)CN([C@@H]2CN(CC#N)C[C@H]2c2ccccc2)C(=O)N4)ccn1 (mixture of isomers) [Example 366] | ≤ 250 | > 1000
Cc1cc(-c2n[nH]c3cc4c(cc23)CN([C@@H]2CCN(C(C)C(F)(F)F)C2)C(=O)N4)ccn1 (stereo partly shown) [Example 267] | ≤ 250 | ≤ 250
Cc1cc(-c2n[nH]c3cc4c(cc23)CN([C@@H]2CN(C)C[C@H]2c2ccccc2F)C(=O)N4)cc(C)n1 (racemic) [Example 306] | ≤ 250 | ≤ 250

SMILES | IC50 [1] [nM] | IC50 (A375 cells) [nM]
Cc1cc(-c2n[nH]c3cc4c(cc23)CN([C@@H]2CN(C(C)C)C[C@H]2c2ccccc2)C(=O)N4)ccn1 (racemic) [Example 279] | ≤ 250 | ≤ 250
Cc1cc(-c2n[nH]c3cc4c(cc23)CN(C(C)c2nccs2)C(=O)N4)ccn1 (stereo not shown) [Example 234] | ≤ 250 | 250 to 1000
Cc1cc(-c2n[nH]c3cc4c(cc23)CN(C2CCCC2)C(=O)N4)cc(C)n1 [Example 239] | ≤ 250 | ≤ 250
Cc1cc(-c2n[nH]c3cc4c(cc23)CN([C@@H]2CN(CC(F)F)C[C@H]2c2ccccc2)C(=O)N4)ccn1 (mixture of isomers) [Example 362] | ≤ 250 | ≤ 250
Cc1cc(-c2n[nH]c3cc4c(cc23)CN(Cc2nc(C)c(C)s2)C(=O)N4)ccn1 [Example 228] | ≤ 250 | 250 to 1000
O=C1Nc2cc3[nH]nc(-c4ccnnc4)c3cc2CN1[C@@H]1CN(CC(F)(F)F)C[C@H]1c1ccccc1 [Example 340] | ≤ 250 | 
O=C1Nc2cc3[nH]nc(-c4ccncc4)c3cc2CN1[C@@H]1CN(CC(F)(F)F)C[C@H]1c1ccccc1 [Example 342] | ≤ 250 | 
Cc1cc(-c2n[nH]c3cc4c(cc23)CN([C@@H]2CN(CC(F)(F)F)C[C@H]2C(C)C)C(=O)N4)ccn1 (mixture of isomers) [Example 322] | 250 to 1000 | 
Cc1cc(-c2n[nH]c3cc4c(cc23)CN([C@H]2CCN(CC(F)(F)F)C2)C(=O)N4)cc(C)n1 [Example 310] | 250 to 1000 | 
COc1ncc(-c2n[nH]c3cc4c(cc23)CN([C@@H]2CN(CC(F)(F)F)C[C@H]2c2ccccc2)C(=O)N4)cn1 [Example 348] | ≤ 250 | 
CCN1CC[C@@H](N2Cc3cc4c(-c5ccnc(C)c5)n[nH]c4cc3NC2=O)C1 [Example 256] | > 1000 | 
Cc1cc(-c2n[nH]c3cc4c(cc23)CN(C(C)c2nc(C)c(C)s2)C(=O)N4)ccn1 (stereo not shown) [Example 286] | ≤ 250 | 
Cc1cc(-c2n[nH]c3cc4c(cc23)CN([C@@H]2CCCN(C3CCC3)C2)C(=O)N4)ccn1 [Example 210] | > 1000 | 
Cc1cc(-c2n[nH]c3cc4c(cc23)CN([C@H]2CN(CC(F)(F)F)C[C@@H]2c2ccccc2)C(=O)N4)ccn1 [Example 303] | > 1000 | 
Cc1cc(-c2n[nH]c3cc4c(cc23)CN([C@@H]2CN(CC(F)(F)F)C[C@H]2C2CC2)C(=O)N4)ccn1 (mixture of isomers) [Example 319] | 250 to 1000 | 
